Molecular target: T1, hKv3.1b (Homo sapiens, UniProt P48547)
T1 construct: expressed in transfected cells
T1 sequence (P48547 1-585 isoform P48547-2): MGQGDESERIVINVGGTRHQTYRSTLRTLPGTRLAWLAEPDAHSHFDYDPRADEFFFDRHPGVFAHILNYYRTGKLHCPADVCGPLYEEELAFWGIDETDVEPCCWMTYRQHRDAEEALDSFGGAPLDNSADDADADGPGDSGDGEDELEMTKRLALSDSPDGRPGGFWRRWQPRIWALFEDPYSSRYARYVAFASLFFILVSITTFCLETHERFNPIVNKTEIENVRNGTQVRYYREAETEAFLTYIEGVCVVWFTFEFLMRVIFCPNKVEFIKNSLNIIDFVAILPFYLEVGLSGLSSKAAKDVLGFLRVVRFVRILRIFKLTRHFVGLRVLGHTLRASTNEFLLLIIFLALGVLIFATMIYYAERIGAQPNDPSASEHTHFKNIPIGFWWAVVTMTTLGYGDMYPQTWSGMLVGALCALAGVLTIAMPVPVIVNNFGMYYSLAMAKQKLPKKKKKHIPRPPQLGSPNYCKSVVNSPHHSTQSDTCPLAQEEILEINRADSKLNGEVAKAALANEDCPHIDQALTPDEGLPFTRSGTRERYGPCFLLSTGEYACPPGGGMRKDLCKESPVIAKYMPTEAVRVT
Assay: Automated whole-cell patch-clamp (QPatch-16x) on HEK-293 cells stably expressing hKv3.1b: shift of voltage threshold for channel activation
Type: cell-based
Conditions: HEK-293 hKv3.1b; for ECdelta5mV: concentration needed to shift the threshold 5 mV, read out from fitted concentration response curve; for Max Delta threshold: maximum absolute shift of activation threshold to more hyperpolarized potentials at the tested concentrations (0.37, 1.11, 3.33, 10, 30 μM)
Description: HEK-293 cells stably expressing hKv3.1b was used for the experiments. Cells were cultured in DMEM medium supplemented with 10% Fetal Bovine Serum, 100 ug/mL Geneticidin and 100 u/mL Penicillin/Streptomycin (all from Gibco). Cells were grown to 80-90% confluency at 37° C. and 5% CO2. On the day of the experiment the cells were detached from the tissue culture flasks by Detachin and resuspended in serum free medium containing 25 mM HEPES and transferred to the cell hotel of the QPatch. The cells were used for experiments 0-5 hours after detachment.
Patch-clamp recordings were performed using the automated recording system QPatch-16x (Sophion Bioscience, Denmark). Cells were centrifuged, SFM removed and the cells were resuspended in extracellular buffer containing (in mM): 145 NaCl, 4 KCl, 1 MgCl2, 2 CaCl2, 10 HEPES and 10 glucose (added fresh on the day of experiment); pH 7.4 adjusted with NaOH, 305 mOsm adjusted with sucrose.
Single cell whole-cell recordings were carried out using an intracellular solution containing (in mM): 120 KCl, 32.25/10 KOH/EGTA, 5.374 CaCl2, 1.75 MgCl2, 10 HEPES, 4 Na2ATP (added fresh on the day), pH 7.2 adjusted with KOH, […] adjusted with sucrose. Cell membrane potentials were held at −80 mV and currents were evoked by voltage steps (200 ms duration) from −70 mV to +10 mV (in 10 mV increments).
Leak subtraction protocol was applied at −33% of the sweep amplitude, and serial resistance values were constantly monitored.
Any cell where serial resistance exceeded 25 MOhm, membrane resistance less than 200 MOhm or current size at −10 mV less than 200 pA was eliminated from the subsequent analysis.
Data analysis was performed using Sophion's QPatch assay software in combination with Microsoft Excel™ (Redmond, Wash., USA).
Current voltage relationships were plotted from the peak current at the individual voltage steps normalized to the vehicle addition at 10 mV. The voltage threshold for channel activation was defined as 5% activation of the peak current at 10 mV in presence of vehicle. The activity of the compounds was described as the ability to shift this current voltage relationship to more hyperpolarized potentials and is given as the maximum absolute shift possible at the tested concentrations (0.37, 1.11, 3.33, 10, 30 μM). Concentration response curves were plotted from the threshold shift at the individual concentrations and were fitted excel fit model 205 sigmodal dose-response model (fit=A+((B−A)/1+((C/x)^D)))), where A is the minimum value, B the maximum value, C the EC50 value and D the slope of the curve. The concentration needed to shift the threshold 5 mV was readout from this curve (ECdelta 5 mV).

Compound | ECdelta5mV [nM] | Max Delta threshold [mV]
Cc1ccc(S(=O)(=O)n2ccc(C(=O)NCc3nccs3)n2)cc1 [Compound 59, 1-(4-methylbenzene-1-sulfonyl)-N-[(1,3-thiazol-2-yl)methyl]-1H-pyrazole-3-carboxamide] | 3000 | 14
COc1ccc(S(=O)(=O)n2ccc(C(=O)NCc3cccnc3)n2)cc1 [Compound 64, 1-(4-methoxyphenyl)sulfonyl-N-(3-pyridylmethyl)pyrazole-3-carboxamide] | 1600 | 24
COc1ccc(S(=O)(=O)n2ccc(C(=O)NCc3cncnc3)n2)cc1 [Compound 7, 1-(4-methoxybenzene-1-sulfonyl)-N-[(pyrimidin-5-yl)methyl]-1H-pyrazole-3-carboxamide] | 2900 | 18
Cc1cnc(CNC(=O)c2ccn(S(=O)(=O)c3ccccc3C)n2)nc1 [Compound 25, 1-(2-methylbenzene-1-sulfonyl)-N-[(5-methylpyrimidin-2-yl)methyl]-1H-pyrazole-3-carboxamide] | 6500 | 13
Cc1cccc(S(=O)(=O)n2ccc(C(=O)NCc3ccn(C)n3)n2)c1 [Compound 22, 1-(3-methylbenzene-1-sulfonyl)-N-[(1-methyl-1H-pyrazol-3-yl)methyl]-1H-pyrazole-3-carboxamide] | 3700 | 14
COc1ccc(S(=O)(=O)n2ccc(C(=O)NCc3cnccn3)n2)cc1C [Compound 4, 1-(4-methoxy-3-methylbenzene-1-sulfonyl)-N-[(pyrazin-2-yl)methyl]-1H-pyrazole-3-carboxamide] | 2100 | 21
Cc1ccc(CNC(=O)c2ccn(S(=O)(=O)c3ccccc3C)n2)nc1 [Compound 27, 1-(2-methylbenzene-1-sulfonyl)-N-[(5-methylpyridin-2-yl)methyl]-1H-pyrazole-3-carboxamide] | 3300 | 18
Cc1ccc(S(=O)(=O)n2ccc(C(=O)NCc3cnc(C)cn3)n2)c(C)c1 [Compound 77, 1-(2,4-dimethylphenyl)sulfonyl-N-[(5-methylpyrazin-2-yl)methyl]pyrazole-3-carboxamide] | 1100 | 29
Cc1cnc(CNC(=O)c2ccn(S(=O)(=O)c3ccc(C(F)F)cc3)n2)cn1 [Compound 71, 1-[4-(difluoromethyl)phenyl]sulfonyl-N-[(5-methylpyrazin-2-yl)methyl]pyrazole-3-carboxamide] | 3500 | 27
COc1ccc(S(=O)(=O)n2ccc(C(=O)NCc3ccno3)n2)cc1 [Compound 10, 1-(4-methoxybenzene-1-sulfonyl)-N-[(1,2-oxazol-5-yl)methyl]-1H-pyrazole-3-carboxamide] | 3400 | 17
Cc1ccc(S(=O)(=O)n2ccc(C(=O)NCc3cnccn3)n2)cc1 [Compound 24, 1-(4-methylbenzene-1-sulfonyl)-N-[(pyrazin-2-yl)methyl]-1H-pyrazole-3-carboxamide] | 2000 | 23
COc1ccc(S(=O)(=O)n2ccc(C(=O)NCc3cnn(C)c3)n2)cc1 [Compound 41, 1-(4-methoxybenzene-1-sulfonyl)-N-[(1-methyl-1H-pyrazol-4-yl)methyl]-1H-pyrazole-3-carboxamide] | 1200 | 25
Cc1ccc(S(=O)(=O)n2ccc(C(=O)NCc3nncs3)n2)cc1 [Compound 47, 1-(4-methylbenzene-1-sulfonyl)-N-[(1,3,4-thiadiazol-2-yl)methyl]-1H-pyrazole-3-carboxamide] | 3300 | 16
COc1ccc(S(=O)(=O)n2ccc(C(=O)NCc3ccn(C)n3)n2)cc1 [Compound 44, 1-(4-methoxybenzene-1-sulfonyl)-N-[(1-methyl-1H-pyrazol-3-yl)methyl]-1H-pyrazole-3-carboxamide] | 1400 | 25
Cc1ccc(S(=O)(=O)n2ccc(C(=O)NCc3cnc(C)cn3)n2)c(F)c1 [Compound 80, 1-(2-fluoro-4-methyl-phenyl)sulfonyl-N-[(5-methylpyrazin-2-yl)methyl]pyrazole-3-carboxamide] | 1500 | 31
Cc1ccc(CNC(=O)c2ccn(S(=O)(=O)c3ccc(F)cc3)n2)nc1 [Compound 34, 1-(4-fluorobenzene-1-sulfonyl)-N-[(5-methylpyridin-2-yl)methyl]-1H-pyrazole-3-carboxamide] | 2800 | 17
Cc1ccccc1S(=O)(=O)n1ccc(C(=O)NCc2ccn(C)n2)n1 [Compound 26, 1-(2-methylbenzene-1-sulfonyl)-N-[(1-methyl-1H-pyrazol-3-yl)methyl]-1H-pyrazole-3-carboxamide] | 2900 | 16
COc1ccc(S(=O)(=O)n2ccc(C(=O)NCc3ccon3)n2)cc1 [Compound 8, 1-(4-methoxybenzene-1-sulfonyl)-N-[(1,2-oxazol-3-yl)methyl]-1H-pyrazole-3-carboxamide] | 3800 | 16
COc1ccc(S(=O)(=O)n2ccc(C(=O)NCc3nc(C)cs3)n2)cc1 [Compound 6, 1-(4-methoxybenzene-1-sulfonyl)-N-[(4-methyl-1,3-thiazol-2-yl)methyl]-1H-pyrazole-3-carboxamide] | 1300 | 22
Cc1ccc(S(=O)(=O)n2ccc(C(=O)NCc3cnc(C)nc3)n2)cc1 [Compound 50, 1-(4-methylbenzene-1-sulfonyl)-N-[(2-methylpyrimidin-5-yl)methyl]-1H-pyrazole-3-carboxamide] | 1700 | 24
COc1ccc(S(=O)(=O)n2ccc(C(=O)NCc3cnc(C)cn3)n2)c(Cl)c1 [Compound 82, 1-(2-chloro-4-methoxy-phenyl)sulfonyl-N-[(5-methylpyrazin-2-yl)methyl]pyrazole-3-carboxamide] | 1600 | 29
COc1ccc(S(=O)(=O)n2ccc(C(=O)NCc3cnccn3)n2)c(C)c1 [Compound 3, 1-(4-methoxy-2-methylbenzene-1-sulfonyl)-N-[(pyrazin-2-yl)methyl]-1H-pyrazole-3-carboxamide] | 1600 | 25
COc1ccc(S(=O)(=O)n2ccc(C(=O)NCc3ncc(C)cn3)n2)cc1 [Compound 37, 1-(4-methoxybenzene-1-sulfonyl)-N-[(5-methylpyrimidin-2-yl)methyl]-1H-pyrazole-3-carboxamide] | 2400 | 27
Cc1ccc(S(=O)(=O)n2ccc(C(=O)NCc3cscn3)n2)cc1 [Compound 52, 1-(4-methylbenzene-1-sulfonyl)-N-[(1,3-thiazol-4-yl)methyl]-1H-pyrazole-3-carboxamide] | 1500 | 16
COc1ccc(S(=O)(=O)n2ccc(C(=O)NCc3ncn(C)n3)n2)cc1 [Compound 13, 1-(4-methoxybenzene-1-sulfonyl)-N-[(1-methyl-1H-1,2,4-triazol-3-yl)methyl]-1H-pyrazole-3-carboxamide] | 4000 | 16
